Data reported in PMC11609934, “Exploration and characterization of the antimalarial activity of cyclopropyl carboxamides that target the mitochondrial protein, cytochrome b” (European Journal of Medicinal Chemistry, 2024).
Converted amounts (≈) assume the structure as drawn.

Key:
[1] = system: P. berghei ANKA parasites; assay: P. berghei 4-day mouse model; assay type: in vivo, Plasmodium berghei; details: for % parasitemia / % reduction in parasitemia: mice, day 4, oral gavage q.d. x4, 50 mg/kg (ART 30 mg/kg); for % reduction in parasitemia: versus vehicle control
Method: The 4-day P. berghei mouse model is used to determine the preliminary in vivo efficacy of antimalarials at an early stage of optimization. To determine if cyclopropyl carboxamide series could reduce asexual blood stage infection, we evaluated representative compounds WJM280 (108) and analog 109 in the 4-day P. berghei mouse model. In this model, mice were infected P. berghei asexual stage parasites, and then 2 h after the infection, WJM280 (108) and analog 109 at 50 mg/kg and artesunate at 30 mg/kg were administered by oral gavage. The same compound doses were administered again, 24, 48, and 72 h post infection. Parasitemia was then quantified by preparing blood smears and visualizing by microscopy across days 2, 3, and 4. […] The inability of these compounds to reduce parasitemia was attributed to their high metabolic turnover, which is a characteristic that needs improving on further development of the cyclopropyl carboxamide class.
P. berghei 4-day Mouse Model. This model was conducted as previously described.

Rat hepatocyte stability = assay type: in vitro ADME; details: pooled rat hepatocytes
Method: Rat Hepatocyte Stability. A solution of the test compound in Krebs-Henseliet buffer solution (1 μM) was incubated in pooled rat hepatocytes (1 × 10^6 cells/mL) for 0, 15,30,45, 60, 75 and 90 min at 37 °C (5 % CO2, 95 % relative humidity). The reaction was terminated with the addition of ice-cold acetonitrile containing system suitability standard at designated time points. […] The experiment was carried out in duplicate. Diltiazem, 7-ethoxy coumarin, propranolol, and midazolam were used as reference standards.

[2] = eLogD (shake-flask, pH 7.4); assay type: physicochemical; details: 1-octanol/phosphate buffered saline (1:1, v/v), Shake-flask method
Method: eLogD. The LogD (pH 7.4) assay was performed using a miniaturized shake flask method. A solution of a pre-saturated mixture of 1-octanol and phosphate buffered saline (PBS) (1:1, v/v) and the test compound (75 μM) was incubated at 25 °C with constant shaking (850 rpm) for 2 h. After incubation the organic and aqueous phases were separated, and samples of each phase transferred to plate for dilution. The organic phase was diluted to 1000-fold and the aqueous phase was diluted 20-fold. The samples were quantitated using LC-MS/MS. The experiment was carried out in duplicate. Propranolol, amitriptyline, and midazolam were used as reference standards.

[3] = Human liver microsome stability; assay type: in vitro ADME; details: pooled human liver microsomes
Method: Human Liver Microsome Stability. A solution of the test compounds in phosphate buffer solution (1 μM) was incubated in pooled human liver microsomes (0.5 mg/mL) for 0, 5, 20, 30, 45 and 60 min at 37 °C in the presence and absence of NADPH regeneration system. The reaction was terminated with the addition of ice-cold acetonitrile containing system suitability standard at designated time points. […] The experiment was carried out in duplicate. Verapamil, diltiazem, phenacetin, and imipramine were used as reference standards.

[4] = Human HepG2 growth inhibition assay (Cell TitreGlo, 48 h); assay type: cell-based; details: human, HepG2 cells, HepG2 cell growth inhibition over 48 h
Outline: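 HepG2 cells (1000/well, DMEM + 10% FCS) exposed 48 h at 37 °C, 5% CO2 to compound from 50 μM top concentration in 1:2 dilutions, 0.5% DMSO final. Viability read by Cell Titer Glo, normalised to DMSO and 10 μM bortezomib; EC50 by four-parameter variable-slope fit.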

[5] = system: P. falciparum 3D7 parasites; assay: P. falciparum 3D7 asexual stage LDH assay (72 h); assay type: cell-based, Plasmodium falciparum; details: Plasmodium falciparum, 3D7, 72 h, LDH activity of P. falciparum 3D7 parasites over 72 h; means and SDs, three or more experiments; read-out: Pf 3D7 EC50 (SD)
Outline: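 Asexual P. falciparum 3D7 parasites were grown for 72 h over a 10-point, 3-fold series starting at 1 μM in 0.1% DMSO, with 100 nM chloroquine as negative growth control. After freeze-thaw, parasite LDH was read at 650 nm, and EC50 came from a variable-slope sigmoidal fit.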

[6] = Aqueous solubility (kinetic in PBS, pH 7.4); assay type: physicochemical; details: phosphate buffered saline
Method: Solubility. The solubility assay was performed using a miniaturized shake flask method. A solution of phosphate buffered saline (PBS) and the test compound (200 μM) was incubated at 25 °C with constant shaking (600 rpm) for 2 h. The samples were filtered using a multiscreen solubility filter plate. The filtrate was half diluted in acetonitrile. A five-point linearity curve was prepared in PBS:acetonitrile (1:1, v/v) at 200, 150, 75, 25 and 2.5 μM. Blank, linearity and test samples (n = 2) were transferred to a UV readable plate and the plate was scanned for absorbance. Best fit calibration curves were constructed using the calibration standards and used to determine the test sample solubility. The experiment was carried out in duplicate. Diethylstilbestrol, haloperidol, and diclofenac sodium were used as reference standards.

male gamete = assay: Dual gamete formation assay, male gametes; assay type: cell-based; details: Plasmodium falciparum; NF54 parasites in a DGFA, 4 replicates
Method: (§1) To determine whether the cyclopropyl carboxamide class has transmission blocking potential we profiled selected analogs in a dual gamete formation assay. In this assay, stage V gametocytes are treated with compound, and gametogenesis is induced by the addition of xanthurenic acid. Male gamete viability is determined by an imaging algorithm measuring motile flagellation, while female viability is measured using an antibody to the female-specific Pfs25 surface marker. […] Collectively, the activity observed against male gametes is consistent with activity observed with other cyt b inhibitors.
(§2) Dual Gamete Formation Assay. Compounds were evaluated as previously described as a platform run at both Imperial College London and the London School of Hygiene and Tropical Medicine. Briefly, mature stage V gametocytes were exposed to compounds for 48 h at 37 °C in 384 well plates in gametocyte culture medium (RPMI 1640 supplemented with 25 mM HEPES, 50 μg/mL hypoxanthine, 4.8 g/L NaHCO3, 2 mM L-glutamine, 5 % pooled type AB serum, 0.5 % Albumax II (Gibco)) under a 1 % O2/3 % CO2/96 % N2 environment. Gametogenesis was then triggered by the addition of 10 μL ookinete medium (gametocyte culture medium supplemented with 100 μM xanthurenic acid and 0.27 μg/mL Cy3-labelled anti-Pfs25 antibody) to each well at room temperature. Plates were then cooled on a metal block at 4 °C for 4 min to ensure even cooling and then stabilized for a further 4 min at 28 °C. At 20 min post-induction, male gametogenesis was recorded in each well by automated brightfield microscopy using a × 4 objective lens and 1.5 × magnifier ( × 6 effective magnification). Afterward, plates were incubated in the dark at room temperature for 24 h and then female gametogenesis recorded in each well by automated fluorescence microscopy (anti-Pfs25-positive cells). […] All data was evaluated in comparison to the positive and negative controls to calculate percentage inhibition of male and female gametocytes, and dose response analysis and EC50 calculation performed using GraphPad Prism.

female gamete = assay: Dual gamete formation assay, female gametes; assay type: cell-based; details: Plasmodium falciparum; NF54 parasites in a DGFA, 4 replicates
Method: as §1, §2

Structure (SMILES) | % parasitemia [1] [%] | % reduction in parasitemia [1] [%] | hepatocyte CLint at 1 μM (Rat hepatocyte stability) [µL/min/1e6 cells] | logD at 2 h [2] | microsomal CLint at 1 h, 1 µM [3] [µL/min/mg] | CC50 at 48 h [4] [nM] | EC50 [5] [nM] | solubility at 2 h [6] [µM] | hepatocyte CLint at 1.5 h, 1 µM (Rat hepatocyte stability) [µL/min/1e6 cells] | EC50 (male gamete) [nM] | EC50 (female gamete) [nM] | body weights of mice ([1]; 50 mg/kg q.d. oral, 4 days)
C[C@H]1[C@H](OC(=O)CCC(=O)O)O[C@@H]2O[C@@]3(C)CC[C@H]4[C@H](C)CC[C@@H]1[C@@]24OO3 [ART, artesunate, reference compound] | 2.3 | 97.7 |  |  |  |  |  |  |  |  |  | 
O=C(NC1CC1)c1ccc(CN(Cc2ccccc2)C2CC2)cc1 [Compound 17, 4-((Benzyl(cyclopropyl)amino)methyl)-N-cyclopropylbenzamide] |  |  | > 92 | 4 | 72 | > 40000 | 140 | 44 (≈ 14.1 µg/mL) |  |  |  | 
CC(C)N(Cc1ccccc1)Cc1ccc(C(=O)NC2CC2)cc1 [Compound 21, 4-((Benzyl(isopropyl)amino)methyl)-N-cyclopropylbenzamide] |  |  | > 92 | 3.5 | 76 | > 40000 | 160 | 140 (≈ 45.1 µg/mL) |  |  |  | 
O=C(NC1CC1)c1ccc(CN(Cc2ccccc2)C2CCC2)cc1 [Compound 22, 4-((Benzyl(cyclobutyl)amino)methyl)-N-cyclopropylbenzamide] |  |  | > 92 | 3.8 | 151 | > 40000 | 160 | 92 (≈ 30.8 µg/mL) |  |  |  | 
O=C(NC1CC1)c1ccc(CN(Cc2ccccc2)CC(F)(F)F)cc1 [Compound 25, 4-((Benzyl(2,2,2-trifluoroethyl)amino)methyl)-N-cyclopropylbenzamide] |  |  | > 92 | 4.8 | 79 | > 40000 | 260 | 11 (≈ 3.99 µg/mL) |  |  |  | 
CCCN(Cc1ccccc1)Cc1ccc(C(=O)NC2CC2)cc1 [Compound 26, 4-((Benzyl(propyl)amino)methyl)-N-cyclopropylbenzamide] |  |  | > 92 | 3.7 | 98 | > 40000 | 130 | 83 (≈ 26.8 µg/mL) |  |  |  | 
CC(c1ccccc1)N(Cc1ccc(C(=O)NC2CC2)cc1)C1CC1 (centres unmarked) [Compound 97, N-Cyclopropyl-4-((cyclopropyl(1-phenylethyl)amino)methyl)benzamide] |  |  | > 92 | 4.2 | 238 | > 40000 | 170 | 22 (≈ 7.36 µg/mL) |  |  |  | 
CCCN(Cc1ccc(C(=O)NC2CC2)cc1)Cc1ccc(C(C)(C)C)cc1 [Compound 107, 4-(((4-(tert-Butyl)benzyl) (propyl)amino)methyl)-N-cyclopropylbenzamide] |  |  |  | 4.9 | 263 | > 40000 | 20 | 10 (≈ 3.79 µg/mL) | 92 | 80 | 21600 | 
CCCN(Cc1ccc(C(=O)NC2CC2)cc1)Cc1cc(C(F)(F)F)cc(C(F)(F)F)c1 [Compound 109, 4-(((3,5-Bis(trifluoromethyl)benzyl) (propyl)amino)methyl)-N-cyclopropylbenzamide] | 91 | 9 |  | 5 | 65 | 10000 | 30 | 2.5 (≈ 1.15 µg/mL) | 60 |  |  | slightly reduced
CCCN(Cc1ccc(C(=O)NC2CC2)cc1)Cc1c(C)cc(C)cc1C [Compound 110, N-Cyclopropyl-4-((propyl(2,4,6-trimethylbenzyl)amino)methyl)benzamide] |  |  |  |  |  | > 40000 | 80 |  |  | 280 | > 25000 | 
